Entries after “also recorded” stand apart in the source; their conditions may differ. Blank lines part the entries; values can stand above or below the compound they belong to.
What was measured:
BRD9 = biological target: T1, BRD9 (Homo sapiens, UniProt Q9H8M2); test: Pharmacodynamic activity in SYO-1 xenograft model (tumor BRD9 western blot); type: in vivo, mice; design: from tissue; host or cells: SYO-1 xenograft tumours in BALB/c nude or NOD SCID mice; conditions: for BRD9 protein levels depleted by: 20% SBECD
T1 sequence (Q9H8M2 1-597): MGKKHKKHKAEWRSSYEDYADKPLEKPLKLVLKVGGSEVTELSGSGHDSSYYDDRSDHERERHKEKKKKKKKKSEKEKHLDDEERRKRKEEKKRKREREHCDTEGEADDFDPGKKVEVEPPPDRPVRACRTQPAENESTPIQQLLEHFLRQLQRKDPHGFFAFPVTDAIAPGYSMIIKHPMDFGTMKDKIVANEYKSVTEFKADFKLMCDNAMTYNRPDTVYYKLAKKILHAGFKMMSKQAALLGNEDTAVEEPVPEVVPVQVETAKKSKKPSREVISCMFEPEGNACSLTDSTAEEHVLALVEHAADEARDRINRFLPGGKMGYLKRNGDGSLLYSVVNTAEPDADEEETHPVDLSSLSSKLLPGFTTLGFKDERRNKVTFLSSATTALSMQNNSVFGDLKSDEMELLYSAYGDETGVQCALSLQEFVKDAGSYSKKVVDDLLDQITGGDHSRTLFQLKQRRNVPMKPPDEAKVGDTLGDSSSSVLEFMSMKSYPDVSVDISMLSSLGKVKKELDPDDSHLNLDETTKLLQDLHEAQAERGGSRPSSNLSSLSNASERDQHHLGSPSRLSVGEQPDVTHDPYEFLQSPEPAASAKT
Experimental: Method. The SYO-1 tumor cells were maintained in vitro as adherent cells in Dulbecco's Modified Eagle Medium (DMEM) supplemented with 10% fetal bovine serum at 37° C. in an atmosphere of 5% CO2 in air. The cells growing in an exponential growth phase were harvested and counted for tumor inoculation. BALB/c Nude mice (Shanghai Lingchang biological science) were inoculated subcutaneously on the right flank with (5×10^6) in 0.1 mL of phosphate buffered saline (PBS). The treatment-(described in table 6)—was started on day 19 after tumor inoculation, when the average tumor size reached 499 mm^3.
Mice were treated with racemic D1, 1 mg/kg, i.p. for 4 weeks, mice were euthanized, and tumors collected 1, 4, 8, 24, 48 and 72-hour post last dose. Tumors were lysed with 1×RIPA lysis buffer (Boston BioProducts, BP-115D) with protease and phosphatase protein inhibitor (Roche Applied Science #04906837001 & 05892791001). Equal amount of lysate (30 ug) were loaded in 4-12% Bis-Tris Midi Protein Gels in 1×MOPS buffer; samples ran at 120 V for 120 min. Proteins was transferred to membrane (NC) with TransBlot at 250 mA for 150 minute, then membranes were blocked with Odyssey Blocking buffer for 1 hour at room temperature. Membranes were hybridized overnight in cold room with primary antibodies. Images acquired using Li-COR imaging system (Li-COR Biotechnology, Lincoln, Nebraska).
Further study. The other study examined a range of compound D1 dose levels (0.05, 0.25, 1 or 5 mg/kg) formulated in a vehicle of 20% SBECD for tumor BRD9 protein levels up to 144 hours post dose. […] BRD9 protein levels were still depleted by 83.4% and 73.2% at 120 hours (5 days) and 144 hours (6 days), respectively, after a single IV administration of 5 mg/kg of compound D1, which corresponds to ˜2.5 mg/kg of compound S-D1.

endogenous BRD9 [1] = biological target: T2, endogenous BRD9 (Homo sapiens, UniProt Q9H8M2); test: Western blot dose response of endogenous BRD9 degradation in cancer cell lines of different lineage; type: cell-based; conditions: for potency of endogenous BRD9 degradation (western blot): 6 hours
T2 sequence (Q9H8M2 1-597): T1 sequence (Q9H8M2 1-597)
Experimental: Compound D1 and Compound S-D1 Dose Response Experiments in Multiple Cell Lines of Different Lineage. To evaluate the efficacy of compound S-D1 ((S)-enantiomer) and compound D1 (racemic) to degrade BRD9 across different cancer lineages (listed in Table 19), dose response experiments were performed in SYO-1, EOL-1, MD-MBA-231, OVCAR8, and PC-9 cell lines. After cell treatment, BRD9 protein levels were assessed by western blot analyses.
Cells grown in flasks to log phase growth were washed with PBS and dissociated by adding TrypLE™ Express (Foghorn) or Trypsin-EDTA 0.25% (Pharmaron). Collected cells were resuspended in their respective cell culture media, counted, and seeded at the indicated cell density in 6-well plates. Two wells were allocated per sample. Plates were incubated at 37° C. with 5% CO2 overnight.
The next day, compound was added to a final concentration as indicted in FIGS. 32B, 32C, and 32D with 3-fold dilution steps, with the final DMSO content of 0.1% (v/v) matching the untreated control. After 6 hours of incubation, cells were harvested, resuspended in PBS, and centrifuged at 5,000 rpm for 5 minutes. After being washed twice with PBS, the resulting cell pellets were stored at −80° C.
Cell lines and cell treatment procedures are highlighted in Table 19 and specific details about western blot procedures are listed in Table 20. The western blot procedure was as described above.

SYO-1 tumor = test: Intermittent dosing schedules, IV, SYO-1 xenograft efficacy; type: in vivo, mice; conditions: for Tumor Size (mm^3) on Day 24: SYO-1 tumor-bearing NOD SCID mice, Mean ± SEM
Experimental: The objective of this study was to provide proof-of-concept of anti-tumor efficacy with intermittent dosing schedules for compound S-D1 by IV administration. Groups of female SYO-1 tumor-bearing NOD SCID mice (n=10/group) were dosed IV with vehicle, compound D1 or compound S-D1 for 24 days according to treatments and dosing schedules shown in Table 10. Compound D1 was formulated in 10% DMSO/40% PEG400/50% water and compound S-D1 was formulated in 20% SBECD in 5 mM citrate buffer, final pH was adjusted to 5 with 1 N NaOH. For the compound S-D1 treatment groups, plasma samples were collected at designated time points following the last dosing. Plasma samples were acidified to stabilize the compound right after collection and analyzed for compound S-D1 concentrations.

endogenous BRD9 [2] = biological target: T2, endogenous BRD9; test: MSD assay of endogenous BRD9 degradation in synovial sarcoma cell lines; type: cell-based; conditions: 6 hours, estimated from racemate compound D1 (about 50% active enantiomer)
[3] = 1 mg/kg BIW IV, 24 days (compound D1)
[4] = 1 mg/kg BIW IV, 24 days (compound S-D1)

SMILES: COc1cc(-c2cn(C)c(=O)c3cnc(N4CCC4)cc23)cc(OC)c1CN1CCC(CN2CCC3(CC2)CN(c2ccc4c(c2)C(=O)N(C2CCC(=O)NC2=O)C4)C3)CC1 (racemic) [Compound D1, 3-[6-(7-[[1-([4-[6-(azetidin-1-yl)-2-methyl-1-oxo-2,7-naphthyridin-4-yl]-2,6-dimethoxyphenyl]methyl)piperidin-4-yl]methyl]-2,7-diazaspiro[3.5]nonan-2-yl)-1-oxo-3H-isoindol-2-yl]piperidine-2,6-dione]
tumor BRD9 protein level response (BRD9; 0.05, 0.25, 1 or 5 mg/kg, up to 144 hours post dose): robust and dose- and time-dependent
BRD9 protein levels depleted by (BRD9; 120 hours (5 days) after a single IV administration of 5 mg/kg): 83.4%
BRD9 protein levels depleted by (BRD9; 144 hours (6 days) after a single IV administration of 5 mg/kg): 73.2%
potency of endogenous BRD9 degradation (western blot) (endogenous BRD9 [1]; MDA-MB-231 (breast cancer), OVCAR8 (ovarian cancer) and EOL1 cells): comparable potency
potency of endogenous BRD9 degradation (western blot) (endogenous BRD9 [1]; PC-9 (EGFR mutant lung cancer) cells): reduced potency
T/C (%) (SYO-1 tumor; [3]): 12.6%
TGI (%) (SYO-1 tumor; [3]): 87.4%
Tumor Size (mm^3) on Day 24 (SYO-1 tumor; 1 mg/kg BIW IV, 24 days): 426 ± 49 mm^3

BRD9 degradation activity when proteasome blocked (endogenous BRD9 [1]; with 1 μM Bortezomib, a proteasome inhibitor (FIG. 32D, EOL-1 cells)): largely abrogated
DC50 (endogenous BRD9 [2]): 0.025 to 0.1 nM
SMILES: COc1cc(-c2cn(C)c(=O)c3cnc(N4CCC4)cc23)cc(OC)c1CN1CCC(CN2CCC3(CC2)CN(c2ccc4c(c2)C(=O)N([C@H]2CCC(=O)NC2=O)C4)C3)CC1 (single isomer, unassigned) [Compound S-D1]
Pharmacodynamic activity: tumor BRD9 protein level by western blot (BRD9; SYO-1 xenograft, BALB/c Nude mice, single dose i.v. (Table 6), listed as Enantiomer 2): significant activity; also recorded: degraded BRD9 up to 72 hours after a single dose; also recorded: equipotent to racemic compound D1
T/C (%) (SYO-1 tumor; 0.05 mg/kg BIW IV, 24 days): 58.2%
TGI (%) (SYO-1 tumor; 0.05 mg/kg BIW IV, 24 days): 41.8%
Tumor Size (mm^3) on Day 24 (SYO-1 tumor; 0.05 mg/kg BIW IV, 24 days): 1946 ± 123 mm^3
T/C (%) (SYO-1 tumor; [4]): 8.1%
TGI (%) (SYO-1 tumor; [4]): 91.9%
Tumor Size (mm^3) on Day 24 (SYO-1 tumor; [4]): 280 ± 37 mm^3
T/C (%) (SYO-1 tumor; 2 mg/kg QW IV, 24 days): 10.1%
TGI (%) (SYO-1 tumor; 2 mg/kg QW IV, 24 days): 89.9%
Tumor Size (mm^3) on Day 24 (SYO-1 tumor; 2 mg/kg QW IV, 24 days): 341 ± 38 mm^3
tumor response (SYO-1 tumor; 0.25 or 1 mg/kg twice weekly IV, SYO-1 tumor): tumor stasis

Source: patent US20240325370A1, “THERAPEUTIC REGIMENS OF A DEGRADER OF BRD9” (FOGHORN THERAPEUTICS INC., priority 2021, published 2024)
